Here are results for one compound from patent US20220213060A1, “Crystal Form of Quinazolinone Compound and Preparation Method Therefor” (Luoxin Healthcare Science and Technology Development …, priority 2019, published 2022).

As usually defined, the pIC50 is the negative decadic logarithm of the IC50, by convention in mol/L. Low readings indicate a large IC50, high ones a small IC50.

The nature of data set [1]: PK test of plasma on the last day of administration in the BT-474 xenograft study. To be noted: BT-474 tumor-bearing nude mice. It counts as in vivo, BALB/c nude mice. How it is done: 0.5-1 hours after administration, the blood concentration reached the peak. The plasma exposure at the dose to play the effect was 69 300 nM*h.
Data set [2] concerns the target Mutant PI3Kα (E545K) (Homo sapiens, UniProt P42336, E545K). In words: In vitro enzymatic activity test, mutant PI3Kα (E545K). Format: biochemical. From the text: The crystal form A of the compound represented by formula (I) has a strong inhibitory effect on both wild-type and mutant PI3Kα kinases. […] The crystal form A of the compound represented by formula (I) has excellent selectivity to the other three subtypes of PI3K, and its inhibitory activity against PI3Kα is 149/7.44/6.61 times higher than that of PI3Kβ/δ/γ, respectively. The specific experimental method was the same as experimental embodiment 8. […] The specific experimental method was the same as experimental embodiment 9.
The lipid kinase reaction was carried out in a suitable substrate and under ATP conditions, then the activity of the kinase was detected by ADP-Glo™ kit in two steps. Step 1: the kinase reaction was terminated, in which the residual ATP was completely removed and only ADP was retained; step 2: kinase detection reagent was added to convert ADP to ATP, accompanied by fluorescein/luciferase reaction. Finally, the fluorescence value output was converted into kinase activity.
Experimental Materials and Equipment:
2) Kit: ADP-Glo™ lipid kinase and PIP2:3PS kit (Promega #V1792)
The reagent kit contains: 1 mM PIP2:3PS, 10× lipid dilution buffer, 1 M magnesium chloride, 10 mM ATP, 10 mM ADP, ADP-Glo reagent, detection buffer and detection substrate. […]
(16) Fluorescence values were measured on the Envision instrument.

The subject of data set [3] is human breast cancer T47D (PIK3CA H1047R mutation). Put plainly: In vivo pharmacodynamic study, T47D nude mouse subcutaneous xenograft tumor model. More on the design: species or system BALB/c nude mice. As to the method:
The phenotype of human T47D breast cancer cells is HR+/HER2−, and it carries PIK3CA H1047R mutation. This experiment evaluated the efficacy of the crystal form A of the compound represented by formula (I) in a human breast cancer xenograft tumor model.
Cell culture: Human breast cancer T47D cells were cultured in vitro in a single layer, the culture condition was RPMI-1640 medium with 0.2 U/mL bovine insulin and 10% fetal bovine serum, and the cells were incubated in 5% CO2 at 37° C. Digestion and passage treatment with trypsin-EDTA was carried out twice a week. When the cell saturation was 80%-90% and the number reached the requirement, the cells were collected, counted and inoculated.
Animals: BALB/c nude mice, female, 6-8 weeks old, weighing 18-20 g. A total of 75 animals were required, and provided by Shanghai Bikai experimental animal Co., Ltd or other qualified suppliers.
Tumor inoculation: Estrogen tablets (0.18 mg/tablet) were subcutaneously inoculated on the left back of each mouse. Three days later, 0.2 mL (10×10^6 cells) of T47D cells (with matrigel in a volume ratio of 1:1) were subcutaneously inoculated on the right back of each mouse, group administration was started when the average tumor volume reached 150 mm^3-200 mm^3.
Tumor-bearing mice in each administration group had good tolerance to the tested compounds.

Data set [4] relates to RAW264.7. Put plainly: Akt phosphorylation inhibition in RAW264.7 cells (high expression of PI3Kγ). It counts as cell-based. The settings on record: RAW264.7 cell line with high expression of PI3Kγ.
Setting [5] is: 10 mg/kg, oral once a day for 42 days.
Where [6] appears, read: 10 mg/kg, oral once a day for 42 days, listed as crystal form A of the compound represented by formula (I).
The mark [7] stands for this setting: 20 mg/kg, oral once a day for 42 days.
Where [8] appears, read: 20 mg/kg, oral once a day for 42 days, listed as crystal form A of the compound represented by formula (I).
Where [9] appears, read: 40 mg/kg, oral once a day for 42 days.
Where [10] appears, read: 40 mg/kg, oral once a day for 42 days, listed as crystal form A of the compound represented by formula (I).

pIC50: −log10 of the molar value. Where only a bound is given, the exact number is not on record here.

Mutant PI3Kα (E545K), sequence (P42336 whole entry E545K): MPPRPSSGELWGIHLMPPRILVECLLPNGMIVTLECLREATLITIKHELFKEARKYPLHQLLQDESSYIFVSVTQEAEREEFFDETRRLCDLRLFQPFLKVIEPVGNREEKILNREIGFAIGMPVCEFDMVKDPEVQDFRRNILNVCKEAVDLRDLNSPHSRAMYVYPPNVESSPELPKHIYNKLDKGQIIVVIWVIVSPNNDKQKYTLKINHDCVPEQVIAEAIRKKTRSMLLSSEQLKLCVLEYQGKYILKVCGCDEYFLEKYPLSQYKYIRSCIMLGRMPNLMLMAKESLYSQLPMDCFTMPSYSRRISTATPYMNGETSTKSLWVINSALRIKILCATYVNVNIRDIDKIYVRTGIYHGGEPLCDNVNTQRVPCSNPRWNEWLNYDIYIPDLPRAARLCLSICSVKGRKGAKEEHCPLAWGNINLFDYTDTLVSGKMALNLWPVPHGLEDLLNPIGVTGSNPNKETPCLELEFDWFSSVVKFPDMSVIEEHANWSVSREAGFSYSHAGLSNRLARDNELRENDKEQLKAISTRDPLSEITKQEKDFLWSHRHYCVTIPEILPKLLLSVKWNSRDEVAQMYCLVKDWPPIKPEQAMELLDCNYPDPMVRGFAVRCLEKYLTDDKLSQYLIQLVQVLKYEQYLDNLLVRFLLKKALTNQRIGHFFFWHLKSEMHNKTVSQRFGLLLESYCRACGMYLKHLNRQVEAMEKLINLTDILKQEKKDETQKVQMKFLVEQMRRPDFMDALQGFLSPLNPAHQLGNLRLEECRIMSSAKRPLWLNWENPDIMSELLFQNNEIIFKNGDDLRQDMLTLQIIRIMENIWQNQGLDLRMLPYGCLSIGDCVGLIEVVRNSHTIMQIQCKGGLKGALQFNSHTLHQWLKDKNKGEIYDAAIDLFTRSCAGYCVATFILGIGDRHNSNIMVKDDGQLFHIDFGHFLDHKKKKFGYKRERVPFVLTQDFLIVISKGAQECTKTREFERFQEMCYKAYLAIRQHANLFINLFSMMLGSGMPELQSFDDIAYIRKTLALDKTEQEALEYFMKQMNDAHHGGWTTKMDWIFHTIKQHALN
Mutant PI3Kα (E545K), sequence (P27986 whole entry partner): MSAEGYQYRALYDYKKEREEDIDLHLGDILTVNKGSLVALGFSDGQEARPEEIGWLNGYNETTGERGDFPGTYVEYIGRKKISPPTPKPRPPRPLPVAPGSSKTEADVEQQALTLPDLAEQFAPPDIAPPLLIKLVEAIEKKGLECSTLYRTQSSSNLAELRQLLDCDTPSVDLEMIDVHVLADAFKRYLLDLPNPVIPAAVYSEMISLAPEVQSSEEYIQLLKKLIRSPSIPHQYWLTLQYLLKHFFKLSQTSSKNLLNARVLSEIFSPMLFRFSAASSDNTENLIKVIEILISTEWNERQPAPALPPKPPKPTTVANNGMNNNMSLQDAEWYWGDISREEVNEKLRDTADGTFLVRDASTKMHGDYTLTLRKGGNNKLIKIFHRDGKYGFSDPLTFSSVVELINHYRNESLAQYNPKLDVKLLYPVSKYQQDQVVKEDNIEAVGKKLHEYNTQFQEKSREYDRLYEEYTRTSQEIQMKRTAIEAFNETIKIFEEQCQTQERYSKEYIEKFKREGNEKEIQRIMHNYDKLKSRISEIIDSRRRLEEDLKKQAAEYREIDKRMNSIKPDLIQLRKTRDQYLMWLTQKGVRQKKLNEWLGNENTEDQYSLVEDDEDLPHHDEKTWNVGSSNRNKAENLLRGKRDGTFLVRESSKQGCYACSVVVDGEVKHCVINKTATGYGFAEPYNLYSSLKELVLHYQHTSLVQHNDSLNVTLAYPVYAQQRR

Regarding `CNC(=O)[C@H](C)Cn1cnc2ccc(-c3cnc(OC)c(NS(=O)(=O)c4ccc(F)cc4F)c3)cc2c1=O`, in data set [1] (oral 10 mg/kg, last day of administration), the “Plasma exposure at the dose to play the effect” value is listed as 69 300 nM*h. Further, the “Plasma exposure with the increase of administration dose” value in data set [1] (oral 10, 20, 40 mg/kg) is “increased linearly”. The “Time after administration at which the blood concentration reached the peak” value in data set [1] (oral, last day of administration) is 0.5 to 1 h. The compound further gave a pIC50 in data set [2] of 8.95. Besides, the figures for the “Anti-tumor effect (in words)” value in data set [3] (10 mg/kg group), in data set [3] (20 mg/kg group) and in data set [3] (40 mg/kg group) were “strong anti-tumor effect”, “strong anti-tumor effect” and “significant anti-tumor effects”, respectively. Moreover, the T/C % in data set [3] (setting [5]) came out at 50.40%; in data set [3] (setting [6]), 50.40%; in data set [3] (setting [7]) it was 44.70%; in data set [3] (setting [8]), 44.70%; in data set [3] (setting [9]), 37.91%; in data set [3] (setting [10]), 37.91%. For the same compound, the TGI % in data set [3] (setting [5]) was determined as 67.58%; in data set [3] (setting [6]), 67.58%; in data set [3] (setting [7]) it was 72.56%; in data set [3] (setting [8]) it was 72.56%; in data set [3] (setting [9]), 84.71%; in data set [3] (setting [10]), 84.71%. Moreover, the “Dose to play the effect” value in data set [3] (oral once a day for 42 days) is given as 10 mg/kg. The “Selectivity PI3Kα over PI3Kγ, Akt phosphorylation inhibitory activity in cells” value in data set [4] is reported as above 694 times.
